Experimental findings from US20070249670A1, “Glycogen Phosphorylase Inhibitor Compounds and Pharmaceutical Compositions Thereof” (SMITHKLINE BEECHAM CORPORATION, priority 2004, published 2007) are described below.

Molecules are shown by their SMILES.

In this assay the target is T1, human liver glycogen phosphorylase a (HLGPa) (Homo sapiens, UniProt P06737).
T1 construct: creating a full-length cDNA fused at the 5′ end to codons for methionine-glycine-alanine-histidine; 6xHis tag (leader Met-Gly-Ala-His6-Gly-Gly) (N); made in house; host or cells: E. coli (bacterial expression plasmid pTXK1007LTev)
T1 sequence (P06737 2-847 limits assumed): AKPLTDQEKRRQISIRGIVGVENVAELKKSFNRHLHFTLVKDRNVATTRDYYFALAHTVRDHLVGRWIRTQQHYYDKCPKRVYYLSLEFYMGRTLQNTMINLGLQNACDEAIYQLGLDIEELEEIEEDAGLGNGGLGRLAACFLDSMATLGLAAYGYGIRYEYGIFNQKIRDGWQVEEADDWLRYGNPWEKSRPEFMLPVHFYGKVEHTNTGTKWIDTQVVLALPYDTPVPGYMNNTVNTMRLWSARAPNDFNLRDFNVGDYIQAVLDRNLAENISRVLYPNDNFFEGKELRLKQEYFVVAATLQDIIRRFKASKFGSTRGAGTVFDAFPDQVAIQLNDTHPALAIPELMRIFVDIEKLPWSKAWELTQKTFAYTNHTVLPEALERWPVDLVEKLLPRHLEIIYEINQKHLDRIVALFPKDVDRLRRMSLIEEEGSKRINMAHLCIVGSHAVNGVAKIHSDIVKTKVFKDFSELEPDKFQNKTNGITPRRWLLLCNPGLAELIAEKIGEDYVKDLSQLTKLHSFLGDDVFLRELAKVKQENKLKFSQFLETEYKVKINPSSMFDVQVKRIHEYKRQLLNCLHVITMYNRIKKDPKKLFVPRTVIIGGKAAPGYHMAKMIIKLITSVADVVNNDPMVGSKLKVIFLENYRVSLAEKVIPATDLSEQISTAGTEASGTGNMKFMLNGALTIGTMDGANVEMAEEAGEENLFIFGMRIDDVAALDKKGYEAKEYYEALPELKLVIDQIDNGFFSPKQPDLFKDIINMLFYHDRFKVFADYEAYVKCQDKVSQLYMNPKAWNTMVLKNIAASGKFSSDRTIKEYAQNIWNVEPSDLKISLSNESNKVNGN
Description: Human liver glycogen phosphorylase a enzymatic activity assay (coupled, fluorescent resorufin readout, with and without 10 mM glucose). The format is biochemical. The following applies: human liver glycogen phosphorylase a; table does not say whether with or without 10 mM glucose.

In general, IC50 refers to the concentration that gives 50% inhibition. The low end stands for inhibition by little substance, the high end for a need for much substance.

For `COc1ccc(-c2ccc(C(=O)N[C@H](c3nn[nH]n3)C3CCCCC3)c(NC(=O)Nc3c(C)cc(C)cc3C)c2)cc1` [Example 205, N—[(S)-cyclohexyl(1H-tetrazol-5-yl)methyl]-4′-(methyloxy)-3-({[(2,4,6-trimethylphenyl)amino]carbonyl}amino)-4-biphenylcarboxamide], the 50% inhibitory concentration (IC50) amounted to 140 nM.

`CNC(=O)Nc1ccc(C(=O)N[C@H](C(=O)O)C2CCCCC2)c(NC(=O)Nc2c(C)cc(C)cc2C)c1` [Example 206]: the IC50 is 96 nM.

Regarding `CCCCN(CCCC)c1ccc(C(=O)N[C@H](C(=O)O)C2CCCCC2)c(NC(=O)Nc2c(C)cc(C)cc2C)c1` [Example 207, (2S)-Cyclohexyl({[4-(dibutylamino)-2-({[(2,4,6-trimethylphenyl)amino]carbonyl}amino)phenyl]carbonyl}amino)ethanoic acid], the 50% inhibitory concentration (IC50) turned out to be 16100 nM.

The compound `O=C(Nc1cc(F)ccc1C(=O)N[C@H](C(=O)O)C1CCCCC1)Nc1c(Cl)cc(OC(F)(F)F)cc1Cl` [Example 208, (2S)-Cyclohexyl{[(2-{[({2,6-dichloro-4-[(trifluoromethyl)oxy]phenyl}amino)carbonyl]amino}-4-fluorophenyl)carbonyl]amino}ethanoic acid] gave an IC50 of 130 nM.

`Cc1cc(C)c(NC(=O)Nc2cc(-c3ccc(F)c(F)c3)ccc2C(=O)N[C@H](C(=O)O)C2CCCCC2)c(C)c1` [Example 209, (2S)-Cyclohexyl({[3′,4′-difluoro-3-({[(2,4,6-trimethylphenyl)amino]carbonyl}amino)-4-biphenylyl]carbonyl}amino)ethanoic acid] returned an IC50 of 14 nM.

The compound `COc1ccc(-c2ccc(C(=O)N[C@H](C(=O)O)C3CCCC3)c(NC(=O)Nc3c(C)cc(C)cc3C)c2)cc1` [Example 210, (2S)-Cyclopentyl({[4′-(methyloxy)-3-({[(2,4,6-trimethylphenyl)amino]carbonyl}amino)-4-biphenylyl]carbonyl}amino)ethanoic acid] registered a half-inhibitory concentration (IC50) of 14 nM.

In turn, `Cc1cc(C)c(NC(=O)Nc2cc(F)ccc2C(=O)N[C@H](C(=O)O)C2CCCC2)c(C)c1` [Example 211, (2S)-Cyclopentyl({[4-fluoro-2-({[(2,4,6-trimethylphenyl)amino]carbonyl}amino)phenyl]carbonyl}amino)ethanoic acid] showed an IC50 of 290 nM.

Take `O=C(Nc1cc(-c2ccc(F)c(F)c2)ccc1C(=O)N[C@H](C(=O)O)C1CCCCC1)Nc1c(Cl)cc(OC(F)(F)F)cc1Cl` [Example 212, (2S)-Cyclohexyl{[(3-{[({2,6-dichloro-4-[(trifluoromethyl)oxy]phenyl}amino)carbonyl]amino}-3′,4′-difluoro-4-biphenylyl)carbonyl]amino}ethanoic acid]: 17 nM corresponded to half-maximal inhibition (IC50).

Consider `Cc1cc(C)c(NC(=O)Nc2cc(-c3ccc(CN(C)C)cc3)ccc2C(=O)N[C@H](C(=O)O)C2CCCCC2)c(C)c1` [Example 213, (2S)-Cyclohexyl({[4′-[(dimethylamino)methyl]-3-({[(2,4,6-trimethylphenyl)amino]carbonyl}amino)-4-biphenylyl]carbonyl}amino)ethanoic acid], for which the IC50 is 24 nM.

Turning to `O=C(Nc1cc(-c2ccccc2)ccc1C(=O)N[C@H](C(=O)O)C1CCCCC1)Nc1c(Cl)cc(OC(F)(F)F)cc1Cl` [Example 214, (2S)-Cyclohexyl{[(3-{[({2,6-dichloro-4-[(trifluoromethyl)oxy]phenyl}amino)carbonyl]amino}-4-biphenylyl)carbonyl]amino}ethanoic acid], inhibition was half-maximal at 23 nM (IC50).

Take `COc1ccc(-c2ccc(C(=O)N[C@H](C(=O)O)C3CCCCC3)c(NC(=O)Nc3c(Cl)cc(OC(F)(F)F)cc3Cl)c2)cc1` [Example 215, (2S)-Cyclohexyl({[3-{[({2,6-dichloro-4-[(trifluoromethyl)oxy]phenyl}amino)carbonyl]amino}-4′-(methyloxy)-4-biphenylyl]carbonyl}amino)ethanoic acid]: the 50% inhibitory concentration (IC50) is 9 nM. This IC50 lies about 2.6-fold lower than the previous one.

In the case of `Cc1cc(C)c(NC(=O)Nc2cc(-c3ccc(CN4CCCC4)cc3)ccc2C(=O)N[C@H](C(=O)O)C2CCCCC2)c(C)c1` [Example 216, (2S)-Cyclohexyl({[4′-(1-pyrrolidinylmethyl)-3-({[(2,4,6-trimethylphenyl)amino]carbonyl}amino)-4-biphenylyl]carbonyl}amino)ethanoic acid], the IC50 stood at 6 nM.

In turn, `Cc1cc(C)c(NC(=O)Nc2cc(-c3ccc(CN4CCOCC4)cc3)ccc2C(=O)N[C@H](C(=O)O)C2CCCCC2)c(C)c1` [Example 217, (2S)-cyclohexyl({[4′-(4-morpholinylmethyl)-3-({[(2,4,6-trimethylphenyl)amino]carbonyl}amino)-4-biphenylyl]carbonyl}amino)ethanoic acid] displayed an IC50 of 9 nM.

In turn, `CCOc1ccc(-c2ccc(C(=O)N[C@H](C(=O)O)C3CCCCC3)c(NC(=O)Nc3c(C)cc(C)cc3C)c2)cc1` [Example 218, (2S)-Cyclohexyl({[4′-(ethyloxy)-3-({[(2,4,6-trimethylphenyl)amino]carbonyl}amino)-4-biphenylyl]carbonyl}amino)ethanoic acid] gave an IC50 of 7 nM.

As to `CCCC[C@H](NC(=O)c1ccc(-c2ccc(OC)cc2)cc1NC(=O)Nc1c(C)cc(C)cc1C)C(=O)O` [Example 219, N-{[4′-(methyloxy)-3-({[(2,4,6-trimethylphenyl)amino]carbonyl}amino)-4-biphenylyl]carbonyl}-L-norleucine], half-maximal inhibition (IC50) was put at 15 nM. Compared with the last compound, the IC50 is about 2.1-fold higher.

The compound `Cc1cc(C)c(NC(=O)Nc2cc(S(C)(=O)=O)ccc2C(=O)N[C@H](C(=O)O)C2CCCCC2)c(C)c1` [Example 220, (2S)-Cyclohexyl({[4-(methylsulfonyl)-2-({[(2,4,6-trimethylphenyl)amino]carbonyl}amino)phenyl]carbonyl}amino)ethanoic acid] registered a 50% inhibitory concentration (IC50) of 1960 nM.

Take `Cc1cc(C)c(NC(=O)Nc2cc(F)ccc2C(=O)NC2(C(=O)O)CCCCCC2)c(C)c1` [Example 221, 1-({[4-Fluoro-2-({[(2,4,6-trimethylphenyl)amino]carbonyl}amino)phenyl]carbonyl}amino)cycloheptane-carboxylic acid]: the IC50 is 300 nM.

Turning to `COc1ccc(-c2ccc(C(=O)NC3(C(=O)O)CCCCCC3)c(NC(=O)Nc3c(C)cc(C)cc3C)c2)cc1` [Example 222, 1-({[4′-(methyloxy)-3-({[(2,4,6-trimethylphenyl)amino]carbonyl}amino)-4-biphenylyl]carbonyl}amino)cycloheptanecarboxylic acid], half-maximal inhibition (IC50) was put at 24 nM.

Compound `Cc1cc(C)c(NC(=O)Nc2cc(-c3ccc(F)cc3)ccc2C(=O)N[C@H](C(=O)O)C2CCCCC2)c(C)c1` [Example 223, (2S)-Cyclohexyl({[4′-fluoro-3-({[(2,4,6-trimethylphenyl)amino]carbonyl}amino)-4-biphenylyl]carbonyl}amino)ethanoic acid] returned an IC50 of 9 nM.

`Cc1cc(C)c(NC(=O)Nc2cc(-c3ccc4c(c3)OCO4)ccc2C(=O)N[C@H](C(=O)O)C2CCCCC2)c(C)c1` [Example 224, (2S)-({[4-(1,3-Benzodioxol-5-yl)-2-({[(2,4,6-trimethylphenyl)amino]carbonyl}amino)phenyl]carbonyl}amino)(cyclohexyl)-ethanoic acid] showed an IC50 of 3 nM.

With `COc1ccc(-c2ccc(C(=O)N[C@H](C(=O)O)[C@@H](C)OC(C)(C)C)c(NC(=O)Nc3c(C)cc(C)cc3C)c2)cc1` [Example 225, O-(1,1-Dimethylethyl)-N-{[4′-(methyloxy)-3-({[(2,4,6-trimethylphenyl)amino]carbonyl}amino)-4-biphenylyl]carbonyl}-L-threonine], the IC50 came out at 2 nM.

For the compound `Cc1cc(C)c(NC(=O)Nc2cc(F)ccc2C(=O)N[C@H](C(=O)O)[C@@H](C)OC(C)(C)C)c(C)c1` [Example 226, O-(1,1-Dimethylethyl)-N-{[4-fluoro-2-({[(2,4,6-trimethylphenyl)amino]carbonyl}amino)phenyl]carbonyl}-L-threonine], half-maximal inhibition (IC50) required 530 nM.

In turn, `Cc1cc(C)c(NC(=O)Nc2cc(-c3ccc(F)c(F)c3)ccc2C(=O)NC2(C(=O)O)CCCCCCC2)c(C)c1` [Example 227, 1-({[3′,4′-Difluoro-3-({[(2,4,6-trimethylphenyl)amino]carbonyl}amino)-4-biphenylyl]carbonyl}amino)cyclooctanecarboxylic acid] showed a half-maximal inhibitory concentration (IC50) of 1 nM.

For `Cc1cc(C)c(NC(=O)Nc2cc(-c3ccc4c(c3)OCCO4)ccc2C(=O)N[C@H](C(=O)O)C2CCCCC2)c(C)c1` [Example 228, (2S)-Cyclohexyl({[4-(2,3-dihydro-1,4-benzodioxin-6-yl)-2-({[(2,4,6-trimethylphenyl)amino]carbonyl}amino)phenyl]carbonyl}amino)ethanoic acid], half-maximal inhibition (IC50) required 4 nM.
